{"source": "patent US10029984B2", "about": "“Mono- or di-substituted indole derivatives as dengue viral replication inhibitors” (Janssen Pharmaceuticals, Inc., priority 2015, dated 2018)", "key": {"in vitro": {"test": "in vitro", "type": "cell-based", "settings": "African green monkey, CC50", "method": "(§1) In parallel, the toxicity of the compounds was assessed on the same plates. Once the read-out for the eGFP signal was done, 10 μL of resazurin, a cell viability stain, was added to all wells of the 384-well plates. The resazurin assay is based on the reduction of the blue resazurin by NADH, produced by the cells, into the highly fluorescent product, resorufin. The formation of pink fluorescent resorufin is directly related to the number of viable cells in the well. The plates were incubated for an additional 5 hours in a fully humidified incubator (37° C., 5% CO2). Next, the plates were measured on an Infinite reader (Tecan) using an excitation wavelength of 530 nm. The half maximal cytotoxic concentration (CC50) was also determined, defined as the concentration required to reduce the resazurin conversion by 50% compared to that of the cell control wells. Finally, the selectivity index (SI) was determined for the compounds, which was calculated as followed: SI=CC50/EC50."}, "DENV-2 16681 strain": {"test_system": "DENV-2 16681 strain", "test": "DENV-2 antiviral assay (eGFP-labeled virus in Vero cells)", "type": "cell-based, Dengue virus", "settings": "DENV-2 16681 eGFP, MOI 0.5, 3 days", "method": "The antiviral activity of all the compounds of the invention was tested against DENV-2 16681 strain which was labeled with enhanced green fluorescent protein (eGPF; Table 1). The culture medium consists of minimal essential medium supplemented with 2% of heat-inactivated fetal calf serum, 0.04% gentamycin (50 mg/mL) and 2 mM of L-glutamine. Vero cells, obtained from ECACC, were suspended in culture medium and 25 μL was added to 384-well plates (2500 cells/well), which already contain the antiviral compounds. Typically, these plates contain a 4-fold serial dilution of 9 dilution steps of the test compound at 200 times the final concentration in 100% DMSO (200 nL). In addition, each compound concentration is tested in quadruplicate (final concentration range: 25 μM-0.00038 μM). Finally, each plate contains wells which are assigned as virus controls (containing cells and virus in the absence of compound), cell controls (containing cells in the absence of virus and compound) and medium controls (containing medium in the absence of cells, virus and compounds). To the wells assigned as medium control, 25 μL of culture medium was added instead of Vero cells. Once the cells were added to the plates, the plates were incubated for 30 minutes at room temperature to allow the cells to distribute evenly within the wells. Next, the plates were incubated in a fully humidified incubator (37° C., 5% CO2) until the next day. Then, DENV-2 strain 16681, labeled with eGFP, was added at a multiplicity of infection (MOI) of 0.5. Therefore, 15 μL of virus suspension was added to all the wells containing test compound and to the wells assigned as virus control. In parallel, 15 μL of culture medium was added to the medium and cell controls. Next, the plates were incubated for 3 days in a fully humidified incubator (37° C., 5% CO2). At the day of the read out, the eGFP fluorescence was measured using an automated fluorescence microscope at 488 nm (blue laser). Using an in-house LIMS system, inhibition dose response curves for each compound were calculated and the half maximal effective concentration (EC50) was determined. Therefore, the percent inhibition (I) for every test concentration is calculated using the following formula: I=100*(ST−SCC)/(SVC−SCC); ST, SCC and SVC are the amount of eGFP signal in the test compound, cell control and virus control wells, respectively. The EC50 represents the concentration of a compound at which the virus replication is inhibited with 50%, as measured by a 50% reduction of the eGFP fluorescent intensity compared to the virus control. The EC50 is calculated using linear interpolation."}, "Vero cells": {"test_system": "Vero cells", "test": "in vitro", "type": "cell-based", "settings": "African green monkey", "method": "as §1"}}}
{"smiles": "COc1cc(NC(C(=O)c2c[nH]c3cc(F)ccc23)c2ccc(F)cc2OC)cc(S(C)(=O)=O)c1", "note": "(racemic) [Compound 1, 1-(6-fluoro-1H-indol-3-yl)-2-(4-fluoro-2-methoxyphenyl)-2-((3-methoxy-5-(methylsulfonyl)phenyl)amino)ethanone]", "values": [{"measurement": "CC50", "setting": "in vitro", "result": 9.9, "unit": "µM"}, {"measurement": "EC50", "setting": "DENV-2 16681 strain; Dengue virus, DENV2, Vero, 72 h", "result": 0.002, "unit": "µM"}]}
{"smiles": "COc1cc(NC(C(=O)c2c[nH]c3cc(F)ccc23)c2ccc(F)cc2OC)cc(S(C)(=O)=O)c1", "note": "(single isomer, unassigned) [Enantiomer 1B, 1-(6-fluoro-1H-indol-3-yl)-2-(4-fluoro-2-methoxyphenyl)-2-((3-methoxy-5-(methylsulfonyl)phenyl)amino)ethanone]", "values": [{"measurement": "CC50", "setting": "Vero cells", "result": 12, "unit": "µM"}, {"measurement": "EC50", "setting": "DENV-2 16681 strain; listed as 1B", "result": 0.05, "unit": "µM"}]}
{"smiles": "COc1cc(NC(C(=O)c2c[nH]c3c(C)c(F)ccc23)c2ccc(F)cc2OC)cc(S(C)(=O)=O)c1", "note": "(single isomer, unassigned) [Enantiomer 2B, 2-(4-fluoro-2-methoxyphenyl)-1-(6-fluoro-7-methyl-1H-indol-3-yl)-2-((3-methoxy-5-(methylsulfonyl)phenyl)amino)ethanone]", "values": [{"measurement": "CC50", "setting": "Vero cells", "result": 8, "unit": "µM"}, {"measurement": "EC50", "setting": "DENV-2 16681 strain; listed as 2B", "result": 0.055, "unit": "µM"}]}
{"smiles": "COc1cc(NC(C(=O)c2c[nH]c3c(C)c(Cl)ccc23)c2ccc(F)cc2OC)cc(S(C)(=O)=O)c1", "note": "(single isomer, unassigned) [Enantiomer 3B, 1-(6-chloro-7-methyl-1H-indol-3-yl)-2-(4-fluoro-2-methoxyphenyl)-2-((3-methoxy-5-(methylsulfonyl)phenyl)amino)ethanone]", "values": [{"measurement": "CC50", "setting": "Vero cells", "result": 11, "unit": "µM"}, {"measurement": "EC50", "setting": "DENV-2 16681 strain; listed as 3B", "result": 0.032, "unit": "µM"}]}
{"smiles": "COc1cc(NC(C(=O)c2c[nH]c3cc(Cl)ccc23)c2ccc(F)cc2OC)cc(S(C)(=O)=O)c1", "note": "(single isomer, unassigned) [Enantiomer 4B, 1-(6-chloro-1H-indol-3-yl)-2-(4-fluoro-2-methoxyphenyl)-2-((3-methoxy-5-(methylsulfonyl)phenyl)amino)ethanone]", "values": [{"measurement": "CC50", "setting": "Vero cells", "result": 16, "unit": "µM"}, {"measurement": "EC50", "setting": "DENV-2 16681 strain; listed as 4B", "result": 0.018, "unit": "µM"}]}
{"smiles": "COc1cc(NC(C(=O)c2c[nH]c3c(F)cc(C)cc23)c2ccc(F)cc2OC)cc(S(C)(=O)=O)c1", "note": "(single isomer, unassigned) [Enantiomer 6B, 2-(4-fluoro-2-methoxyphenyl)-1-(7-fluoro-5-methyl-1H-indol-3-yl)-2-((3-methoxy-5-(methylsulfonyl)phenyl)amino)ethanone]", "values": [{"measurement": "CC50", "setting": "Vero cells", "result": 12, "unit": "µM"}, {"measurement": "EC50", "setting": "DENV-2 16681 strain; listed as 6B", "result": 0.2, "unit": "µM"}]}
{"smiles": "COc1cc(NC(C(=O)c2c[nH]c3cc(F)c(F)cc23)c2ccc(F)cc2OC)cc(S(C)(=O)=O)c1", "note": "(single isomer, unassigned) [Enantiomer 7B, 1-(5,6-difluoro-1H-indol-3-yl)-2-(4-fluoro-2-methoxyphenyl)-2-((3-methoxy-5-(methylsulfonyl)phenyl)amino)ethanone]", "values": [{"measurement": "CC50", "setting": "Vero cells", "result": 9.6, "unit": "µM"}, {"measurement": "EC50", "setting": "DENV-2 16681 strain; listed as 7B", "result": 0.043, "unit": "µM"}]}
{"smiles": "COc1cc(NC(C(=O)c2c[nH]c3c(C)cc(F)cc23)c2ccc(F)cc2OC)cc(S(C)(=O)=O)c1", "note": "(single isomer, unassigned) [Enantiomer 8B, 2-(4-fluoro-2-methoxyphenyl)-1-(5-fluoro-7-methyl-1H-indol-3-yl)-2-((3-methoxy-5-(methylsulfonyl)phenyl)amino)ethanone]", "values": [{"measurement": "CC50", "setting": "Vero cells", "result": 11, "unit": "µM"}, {"measurement": "EC50", "setting": "DENV-2 16681 strain; listed as 8B", "result": 0.24, "unit": "µM"}]}
{"smiles": "COc1cc(NC(C(=O)c2c[nH]c3cc(C)c(F)cc23)c2ccc(F)cc2OC)cc(S(C)(=O)=O)c1", "note": "(single isomer, unassigned) [Enantiomer 9B, 2-(4-fluoro-2-methoxyphenyl)-1-(5-fluoro-6-methyl-1H-indol-3-yl)-2-((3-methoxy-5-(methylsulfonyl)phenyl)amino)ethanone]", "values": [{"measurement": "CC50", "setting": "Vero cells", "result": 21, "unit": "µM"}, {"measurement": "EC50", "setting": "DENV-2 16681 strain; listed as 9B", "result": 0.098, "unit": "µM"}]}
{"smiles": "COc1cc(NC(C(=O)c2c[nH]c3cc(OC)c(C)cc23)c2ccc(F)cc2OC)cc(S(C)(=O)=O)c1", "note": "(single isomer, unassigned) [Enantiomer 10A, 2-(4-fluoro-2-methoxyphenyl)-2-((3-methoxy-5-(methylsulfonyl)phenyl)amino)-1-(6-methoxy-5-methyl-1H-indol-3-yl)ethanone]", "values": [{"measurement": "CC50", "setting": "Vero cells", "result": 18, "unit": "µM"}, {"measurement": "EC50", "setting": "DENV-2 16681 strain; listed as 10A", "result": 0.054, "unit": "µM"}]}
{"smiles": "COc1cc(NC(C(=O)c2c[nH]c3cc(OC)c(F)cc23)c2ccc(F)cc2OC)cc(S(C)(=O)=O)c1", "note": "(single isomer, unassigned) [Enantiomer 11B, 2-(4-fluoro-2-methoxyphenyl)-1-(5-fluoro-6-methoxy-1H-indol-3-yl)-2-((3-methoxy-5-(methylsulfonyl)phenyl)amino)ethanone]", "values": [{"measurement": "CC50", "setting": "Vero cells", "result": "> 25", "unit": "µM"}, {"measurement": "EC50", "setting": "DENV-2 16681 strain; listed as 11B", "result": 0.055, "unit": "µM"}]}
{"smiles": "COc1cc(NC(C(=O)c2c[nH]c3c(Cl)c(OC)ccc23)c2ccc(F)cc2OC)cc(S(C)(=O)=O)c1", "note": "(single isomer, unassigned) [Enantiomer 12B, 1-(7-chloro-6-methoxy-1H-indol-3-yl)-2-(4-fluoro-2-methoxyphenyl)-2-((3-methoxy-5-(methylsulfonyl)phenyl)amino)ethanone]", "values": [{"measurement": "CC50", "setting": "Vero cells", "result": "> 25", "unit": "µM"}, {"measurement": "EC50", "setting": "DENV-2 16681 strain; listed as 12B", "result": 0.021, "unit": "µM"}]}
{"smiles": "COc1cc(NC(C(=O)c2c[nH]c3cc(F)c(C)cc23)c2ccc(F)cc2OC)cc(S(C)(=O)=O)c1", "note": "(single isomer, unassigned) [Enantiomer 14B, 2-(4-fluoro-2-methoxyphenyl)-1-(6-fluoro-5-methyl-1H-indol-3-yl)-2-((3-methoxy-5-(methylsulfonyl)phenyl)amino)ethanone]", "values": [{"measurement": "CC50", "setting": "Vero cells", "result": 11, "unit": "µM"}, {"measurement": "EC50", "setting": "DENV-2 16681 strain; listed as 14B", "result": 0.041, "unit": "µM"}]}
{"smiles": "COc1cc(NC(C(=O)c2c[nH]c3ccc(C)cc23)c2ccc(F)cc2OC)cc(S(C)(=O)=O)c1", "note": "(single isomer, unassigned) [Enantiomer 15B, 2-(4-fluoro-2-methoxyphenyl)-2-((3-methoxy-5-(methylsulfonyl)phenyl)amino)-1-(5-methyl-1H-indol-3-yl)ethanone]", "values": [{"measurement": "CC50", "setting": "Vero cells", "result": 17, "unit": "µM"}, {"measurement": "EC50", "setting": "DENV-2 16681 strain; listed as 15B", "result": 0.073, "unit": "µM"}]}
{"smiles": "COc1cc(NC(C(=O)c2c[nH]c3cc(OC)c(Cl)cc23)c2ccc(F)cc2OC)cc(S(C)(=O)=O)c1", "note": "(single isomer, unassigned) [Enantiomer 16B, 1-(5-chloro-6-methoxy-1H-indol-3-yl)-2-(4-fluoro-2-methoxyphenyl)-2-((3-methoxy-5-(methylsulfonyl)phenyl)amino)ethanone]", "values": [{"measurement": "CC50", "setting": "Vero cells", "result": 22, "unit": "µM"}, {"measurement": "EC50", "setting": "DENV-2 16681 strain; listed as 16B", "result": 0.013, "unit": "µM"}]}
{"smiles": "COc1cc(NC(C(=O)c2c[nH]c3ccc(C(F)(F)F)cc23)c2ccc(F)cc2OC)cc(S(C)(=O)=O)c1", "note": "(single isomer, unassigned) [Enantiomer 17A, 2-(4-fluoro-2-methoxyphenyl)-2-((3-methoxy-5-(methylsulfonyl)phenyl)amino)-1-(5-(trifluoromethyl)-1H-indol-3-yl)ethanone]", "values": [{"measurement": "CC50", "setting": "Vero cells", "result": 14, "unit": "µM"}, {"measurement": "EC50", "setting": "DENV-2 16681 strain; listed as 17A", "result": 0.038, "unit": "µM"}]}
{"smiles": "COc1cc(NC(C(=O)c2c[nH]c3ccc(OC(F)(F)F)cc23)c2ccc(F)cc2OC)cc(S(C)(=O)=O)c1", "note": "(single isomer, unassigned) [Enantiomer 18B, 2-(4-fluoro-2-methoxyphenyl)-2-((3-methoxy-5-(methylsulfonyl)phenyl)amino)-1-(5-(trifluoromethoxy)-1H-indol-3-yl)ethanone]", "values": [{"measurement": "CC50", "setting": "Vero cells", "result": 10, "unit": "µM"}, {"measurement": "EC50", "setting": "DENV-2 16681 strain; listed as 18B", "result": 0.0092, "unit": "µM"}]}
